Data: publication PMC10783034, “Pharmacokinetic and pharmacodynamic evaluation of the atypical tetracyclines chelocardin and amidochelocardin in murine infection models” (Microbiology Spectrum, 2023)
Values after ≈ are worked out from the molar mass of the structure shown.

Columns and labels:
E. coli ATCC 25922 [1] = assay: Neutropenic thigh infection model in CD-1 mice; assay type: in vivo; conditions: 20 mg/kg IV BID, positive control
Description: (§1) The inoculum for K. pneumoniae ATCC 43816 was prepared freshly as described previously to yield 1 × 10^4 cfu/mL ([56]). The inoculum of the E. coli ATCC 25922 was diluted from a frozen stock to 1.4 × 10^6 cfu/ml. N = 6 animals per group were used for both tested strains. N = 4 mice were used in the pre-treatment group in the neutropenic thigh infection model with E. coli ATCC 25922. Mice were rendered neutropenic by administration of 150 mg/kg and 100 mg/kg cyclophosphamide intraperitoneally on days −4 and −1, respectively. On the day of infection (day 0), mice received 30 µL of the inoculum of K. pneumoniae ATCC 43816 into each lateral thigh under isoflurane anesthesia, corresponding to 6 × 10^2 cfu/mouse. In the model with E. coli, mice received 50 µL of the inoculum of E. coli into each lateral thigh under isoflurane anesthesia, corresponding to 1.4 × 10^5 cfu/mouse. Whilst still under anesthesia, mice were administered a dose of Buprenorphine (0.03 mg/kg) subcutaneously for pain relief. 24 hours after infection, mice were euthanized by slowly introducing CO2 and cardiac puncture to remove blood from the heart immediately after death. Kidneys and thighs were aseptically removed. 24 hours after infection, the clinical score of every individual animal was assessed. Clinical scoring comprises the assessment of different parameters such as spontaneous behavior, posture, appearance, and provoked behavior. Each parameter was assessed with a score of 0 to 3 (ascending severity from 0 to 3). The humane endpoint was reached when the clinical score of a single parameter was 3 or if the total clinical score was higher than 8. Whole blood was collected into Eppendorf tubes coated with 0.5 M EDTA. Organs were homogenized in 0.9% NaCl solution. Organs and blood were plated onto agar plates in duplicates in serial dilutions and incubated at 37°C for 24 hours. 25 µL per dilution of the homogenized organ was spotted onto agar plates. In addition, 1 mL of homogenized organ is streaked onto an agar plate in technical duplicates. If no single colony is observed then, this would result in 0 cfu/mL. Thus, the threshold of detection is 0 log10 cfu/g. The groups used in the different neutropenic thigh infection models are found in Tables S4 through S7. In brief, levofloxacin with 3.3 mg/kg TID IP was used as a positive control antibiotic for the K. pneumoniae model, whereas ciprofloxacin with 20 mg/kg BID IV was used for the E. coli model, respectively. The rationale for TID dosing was based on the PK/PD index of fAUC/MIC for fluoroquinolones ([57] [–] [59]). […] Moreover, CHD and CDCHD were administered at 10 mg/kg SC QID (t = 1,3,5,7 hours), 15 mg/kg SC TID (t = 1,4,7 hours), and 50 mg/kg SC QD (t = 1 hour) (Tables S5 and S6). In the E. coli neutropenic thigh infection model, CHD and CDCHD, respectively, were administered at 50 mg/kg IV QD (t = 1 hour) and 15 mg/kg IV BID (t = 1 and 6 hours) (Table S7).
(§2) For the neutropenic thigh infection model with E. coli ATCC 25922, the thighs were regarded as two independent infection sites throughout the experiment. For statistical analysis, individual thighs (left and right) were treated as separate samples although these were not completely independent values. For the neutropenic thigh infection model with K. pneumoniae ATCC 43816, the individual thighs (left and right) were treated as one sample. For the efficacy models, the non-parametric Kruskal-Wallis test was used with GraphPad Prism 9.4.1. For the ascending urinary tract infection model, an ordinary one-way ANOVA with Dunnett’s multiple comparison test was used with GraphPad Prism 9.4.1.

E. coli ATCC 25922 [2] = assay: MIC determination; assay type: cell-based; conditions: Escherichia coli, ATCC25922; MHB medium; read-out: MIC
Description: (§3) The assay was conducted as described previously ([54]) with the following modifications. The MIC was tested against the K. pneumoniae strain ATCC 43816 in an MHB (not cation-adjusted) medium. CHD and CDCHD were tested in concentrations ranging from 0.078 to 10 µg/mL. Moreover, the MIC was determined for the following strains: K. pneumoniae DSM-30104, E. faecium DSM-20477, S. aureus DSM-346, P. aeruginosa DSM-11128, A. baumannii DSM-30008, E. aerogenes DSM-30053, E. coli ATCC 25922, and E. coli C175-94. All strains were grown in MHB medium, except for E. faecium, which was grown in TSB. CHD, epi-CDH, and CDCHD were tested in concentrations ranging from 0.125 to 64 µg/mL as described previously ([19]).

[3] = Histopathological analysis of kidneys and bladder in the ascending urinary tract infection model (satellite groups); assay type: in vivo, mice; parameters: histopathological score Papilla / histopathological score Bladder: scale not given here
Description: (§4) The model was conducted as described previously ([27], [60]). In brief, n = 21 animals were used per group in the main study, and n = 3 animals per group in satellite groups for histopathological analysis. Three days before the start of the study and during the study, mice had free access to 5% glucose as drinking water. Fresh overnight colonies of E. coli from a 5% horse blood agar plate were suspended in PBS pH 7.4 to approximately 10^9 cfu/mL. Approximately 1 hour before inoculation, mice were treated orally with […] Nurofen (20 mg ibuprofen/mL corresponding to approximately 30 mg/kg) as a pain relief. Urine was removed from the bladder by gently pressing the abdomen and mice were anaesthetized with 0.15 mL Zoletil mix SC. Thereafter, the mice were inoculated. A syringe with a catheter, containing the bacterial suspension was inserted via the urethra into the bladder and 50 µL of the inoculum was slowly injected into the bladder. Hereafter, the mouse was placed in the cage and kept in a warming cabinet until fully awake (approximately 4 hours). The mice were treated with CHD (12 mg/kg SC BID), CDCHD (12 mg/kg SC BID), gentamicin (100 mg/kg SC BID), or vehicle BID (2nd dose was administered approximately 6 hours after the 1st dose on each day) on day 1, that is, first dose around 24 hours post-infection, and day 2 post-inoculation. The mice were observed during the study and scored based on their behavior and clinical signs. Clinical scoring comprised assessment of piloerection in the skin, activity (movement, curiosity), and appearance of eyes. The scoring range comprised 0–4. In our model, a maximum score of 1; thus, only mild discomfort was observed. On day 3 post-inoculation and after sampling urine, mice were euthanized by cervical dislocation, and bladder and kidneys were removed from 21 mice in each treatment group aseptically for cfu determination. The bladder and kidneys were stored at −80°C and later homogenized in 0.5 or 1 mL saline, respectively. Colony counts of urine were determined immediately. From the three additional mice in each treatment group (satellite groups), urine and plasma were sampled and frozen at −80°C, and bladders, kidneys, and liver were collected in 4% buffered formalin. Cfu was determined in urine samples within 2–3 hours after sampling. Frozen organs were thawed and homogenized with steel beads using a tissue lyser. All samples, urine, kidney, and bladder, were 10-fold diluted in saline and 20 µL spots were applied on blue agar plates in duplicates. In addition, undiluted samples of urine (2–100 μL depending on the available amount of urine) were spread on a separate agar plate to determine the colony counts at the lowest possible detection level. All agar plates were incubated for 18–22 hours at 35°C in ambient air.
Approximately 3 µm thick sections of formalin-fixed, paraffin-embedded samples of liver and kidney were analyzed blinded, and randomized to the experimental groups by a trained veterinarian. […] Kidneys were analyzed for changes in the glomeruli (not found), tubular dilation (1 = mild or up to 20% of tubuli affected, 2 = moderate or 25-40% of tubuli affected, 3 = severe 50% or more), and inflammatory infiltrate in the pelvis (1 = mild, 2 = moderate, 3 = severe).

E. coli C175-94 [4] = assay: Ascending urinary tract infection model in OF-1 mice; assay type: in vivo; conditions: CHD/CDCHD 12 mg/kg SC BID, gentamicin 100 mg/kg SC BID
Description: as §4, §2

E. coli C175-94 [5] = assay: MIC determination; assay type: cell-based; conditions: Escherichia coli, C17594; MHB medium; read-out: MIC
Description: as §3

K. pneumoniae ATCC 43816 [6] = assay: Neutropenic thigh infection model in CD-1 mice; assay type: in vivo; conditions: levofloxacin 3.3 mg/kg IP TID
Description: as §1, §2

K. pneumoniae ATCC 43816 [7] = assay: MIC determination; assay type: cell-based; conditions: Klebsiella pneumoniae, ATCC43816; MHB (not cation-adjusted) medium; read-out: MIC
Description: as §3

[8] = infected mice, CHD/CDCHD 12 mg/kg SC BID, gentamicin 100 mg/kg SC BID
[9] = 24 hours after infection, CHD/CDCHD 10 mg/kg SC QD or BID, vs vehicle

## O=C(O)c1cn(C2CC2)c2cc(N3CCNCC3)c(F)cc2c1=O [ciprofloxacin, reference compound]
E. coli ATCC 25922 [1]
  bacterial burden in the thigh, compared with CHD and CDCHD: exerted a stronger effect
E. coli ATCC 25922 [2]
  MIC: 0.008 µg/mL (≈ 0.0241 µM)

## CNC(C)C1CCC(N)C(OC2C(N)CC(N)C(OC3OCC(C)(O)C(NC)C3O)C2O)O1 (stereo not drawn) [gentamicin, reference compound]
[3]; animal No. 1
  histopathological score Bladder: 1
[3]; animal No. 2
  histopathological score Bladder: 0
[3]; animal No. 3
  histopathological score Bladder: 1
[3]; [8]
  histopathological findings in bladder: mild, focal, submucosal inflammatory aggregates
  histopathological findings in kidneys: only a mild tubulus dilation without inflammatory cells in the renal pelvis
E. coli C175-94 [4]; control animals 23.8%
  animals with sterile kidneys: 95.2%
E. coli C175-94 [4]; day 3, vs vehicle
  bacterial burden in kidneys: strong and significant reduction
  bacterial burden in the bladder: The same was observed for gentamicin
E. coli C175-94 [5]
  MIC: 0.75 µg/mL (≈ 1.57 µM)

## C[C@H]1COc2c(N3CCN(C)CC3)c(F)cc3c(=O)c(C(=O)O)cn1c23 [levofloxacin, reference compound]
K. pneumoniae ATCC 43816 [6]; [9]
  bacterial burden in blood: The same was found in blood
  bacterial burden in the thigh: A significant reduction of bacterial burden
K. pneumoniae ATCC 43816 [6]; higher-dose studies: 10 mg/kg SC QID, 15 mg/kg SC TID, 50 mg/kg SC QD
  bacterial burden in the kidney: did not reduce bacterial burden with statistical significance
K. pneumoniae ATCC 43816 [7]
  MIC: 0.08 µg/mL (≈ 0.221 µM)
